The record followed here is DBAASP.

Test systems include Streptococcus pneumoniae; Klebsiella pneumoniae; Acinetobacter baumannii; Enterococcus faecium; Pseudomonas aeruginosa; Staphylococcus xylosus.
Holding throughout (assay): ≥ marks a high value that may be exact or a test limit, other limits are often not marked, values filed in µg/mL are converted to µM
Experiment [1] has as its system Escherichia coli ATCC 25922.
Experiment [2] has as its system Staphylococcus aureus ATCC 43300.
Experiment [3] has as its system Klebsiella pneumoniae ATCC 13883.
In experiment [4] the test system is Pseudomonas aeruginosa ATCC 27853.
The test system of experiment [5] is Bacillus subtilis ATCC 6051.
Experiment [6] concerns Acinetobacter baumannii ATCC 19606.
Experiment [7] deals with Candida albicans ATCC 90028.
Experiment [8] relates to Klebsiella pneumoniae ATCC 700603.
Experiment [9] relates to Klebsiella pneumoniae ATCC BAA-2146.
Experiment [10] deals with Cryptococcus neoformans ATCC 208821.
Experiment [11] has as its system Escherichia coli DH5alpha.

≈ marks a conversion by molar mass, not a printed value.

By MIC is commonly meant the lowest concentration found to suppress growth. A lower MIC goes with greater potency. Take `CC[C@H](C)[C@H](NC(=O)[C@H](Cc1cnc[nH]1)NC(=O)CNC(=O)CN)C(=O)N[C@@H](CCCN=C(N)N)C(=O)N[C@@H](CCCN=C(N)N)C(=O)N[C@H](C(=O)N[C@H](C(=O)N[C@@H](CCCN=C(N)N)C(=O)N[C@@H](CCCCN)C(=O)N[C@H](C(=O)N[C@H](C(=O)N[C@@H](Cc1cnc[nH]1)C(=O)N[C@H](C(=O)N[C@H](C(=O)N[C@@H](CCCCN)C(=O)N[C@@H](CCCCN)C(=O)NCC(=O)NCC(=O)N[C@@H](CS)C(N)=O)[C@@H](C)CC)[C@@H](C)CC)[C@@H](C)CC)[C@@H](C)CC)[C@@H](C)CC)[C@@H](C)CC` [GGHIRRIIRKIIHIIKKGGC]: the minimal inhibitory concentration (MIC) in the experiment on Streptococcus pneumoniae is 4 µM (≈ 9.07 µg/mL); in the experiment with Klebsiella pneumoniae, 8 µM (≈ 18.1 µg/mL); against Acinetobacter baumannii it was 10.7 µM (≈ 24.3 µg/mL); in experiment [1], 1.3 µM (≈ 2.95 µg/mL); in the experiment on Enterococcus faecium it was 3.3 µM (≈ 7.48 µg/mL); in experiment [2], 1.5 µM (≈ 3.4 µg/mL). The same compound came in with a minimal inhibitory concentration (MIC) in the experiment with Pseudomonas aeruginosa of 4 µM (≈ 9.07 µg/mL).

Consider `CC[C@H](C)[C@@H]1NC(=O)CNC(=O)[C@H](CCCN=C(N)N)NC(=O)[C@H](Cc2ccc(O)cc2)NC(=O)[C@@H]2CSSC[C@H](NC1=O)C(=O)N[C@@H](Cc1ccc(O)cc1)C(=O)N[C@@H](CCCN=C(N)N)C(=O)N[C@@H](CCCN=C(N)N)C(=O)N[C@H](C(=O)N[C@@H](CCCN=C(N)N)C(=O)O)CSSC[C@H](NC(=O)[C@H](C)NC(=O)[C@@H](N)CCCCN)C(=O)N[C@@H](Cc1ccccc1)C(=O)N[C@@H](CCCN=C(N)N)C(=O)N[C@@H](C(C)C)C(=O)N2` [KACFRVCYRGICYRRCR], for which the MIC in [3] was 0.232 µM (≈ 0.499 µg/mL); in experiment [4], 0.232 µM (≈ 0.499 µg/mL); in the experiment on Klebsiella pneumoniae, above 7.43 µM; in the experiment on Acinetobacter baumannii, 0.232 µM (≈ 0.499 µg/mL); in experiment [5] it was 0.232 µM (≈ 0.499 µg/mL); in [1] it was 0.116 µM (≈ 0.25 µg/mL). Besides, the minimum inhibitory concentration (MIC) in experiment [6] was 0.232 µM (≈ 0.499 µg/mL); in experiment [2] it was 3.71 µM (≈ 7.99 µg/mL); in [7], 3.71 µM (≈ 7.99 µg/mL); in [8], 0.464 µM (≈ 0.998 µg/mL); in [9] it was 0.464 µM (≈ 0.998 µg/mL); in [10], 0.232 µM (≈ 0.499 µg/mL). In the experiment on Pseudomonas aeruginosa, this compound yielded an MIC of 1.86 µM (≈ 3.99 µg/mL).

Take `NCCCC[C@H](NC(=O)[C@H](CCCN=C(N)N)NC(=O)[C@H](CCCCN)NC(=O)CNC(=O)[C@H](CO)NC(=O)CNC(=O)[C@H](CCCCN)NC(=O)[C@H](CCCN=C(N)N)NC(=O)[C@@H](N)CCCCN)C(=O)O` [KRKGSGKRK]: the minimum inhibitory concentration (MIC) (against Staphylococcus xylosus; in experiment [11]) was at least 64 µM throughout.

With `CC[C@H](C)[C@H](NC(=O)[C@H](CC(C)C)NC(=O)[C@H](CCCCN)NC(=O)[C@H](CCCN=C(N)N)NC(=O)[C@@H](N)CCCCN)C(=O)N[C@@H](CCCCN)C(=O)N[C@@H](CCCN=C(N)N)C(=O)N[C@@H](CCCCN)C(=O)O` [KRKLIKRK], the MIC (in the experiment on Staphylococcus xylosus; in experiment [11]) was at least 64 µM each time.

Regarding `CC[C@H](C)[C@H](NC(=O)[C@H](CC(C)C)NC(=O)[C@@H](NC(=O)[C@H](CC(C)C)NC(=O)[C@@H](NC(=O)[C@H](CCCCN)NC(=O)[C@H](CCCN=C(N)N)NC(=O)[C@H](CCCCN)NC(=O)[C@H](CCCN=C(N)N)NC(=O)[C@@H](N)CCCCN)[C@@H](C)CC)[C@@H](C)CC)C(=O)N[C@@H](CCCCN)C(=O)N[C@@H](CCCN=C(N)N)C(=O)N[C@@H](CCCCN)C(=O)O` [KRKRKILILIKRK], the minimal inhibitory concentration (MIC) amounted to 0.5 µM (≈ 0.847 µg/mL) against Staphylococcus xylosus and 8 µM (≈ 13.5 µg/mL) in [11].

Take `CC(C)[C@@H]1NC(=O)[C@H](CCCN=C(N)N)NC(=O)[C@H](C)NC(=O)[C@@H](NC(=O)[C@H](Cc2c[nH]c3ccccc23)NC(=O)[C@@H](N)CCCCN)CSSC[C@@H](C(=O)N[C@@H](CCCN=C(N)N)C(=O)O)NC(=O)[C@H](CCCN=C(N)N)NC(=O)[C@H](CCCN=C(N)N)NC(=O)[C@H](Cc2ccc(O)cc2)NC(=O)[C@@H]2CSSC[C@H](NC1=O)C(=O)N[C@@H](C)C(=O)N[C@@H](CCCN=C(N)N)C(=O)NCC(=O)N[C@@H](C)C(=O)N2` [KWCARVCARGACYRRCR]: the minimal inhibitory concentration (MIC) in experiment [3] was 7.77 µM (≈ 16 µg/mL); in experiment [4], above 7.77 µM; against Klebsiella pneumoniae, above 7.77 µM; with Acinetobacter baumannii it was 7.77 µM (≈ 16 µg/mL); in experiment [5], 7.77 µM (≈ 16 µg/mL); in experiment [1], 3.89 µM (≈ 7.98 µg/mL). Further, the minimum inhibitory concentration (MIC) in [6] was above 7.77 µM; in experiment [2], above 7.77 µM; in experiment [7], 7.77 µM (≈ 16 µg/mL); in experiment [8], above 7.77 µM; in [9], 7.77 µM (≈ 16 µg/mL); in [10], 7.77 µM (≈ 16 µg/mL). The compound also had an MIC with Pseudomonas aeruginosa above 7.77 µM.

`CC[C@H](C)[C@@H]1NC(=O)CNC(=O)[C@H](CCCN=C(N)N)NC(=O)[C@H](Cc2ccc(O)cc2)NC(=O)[C@@H]2CSSC[C@H](NC1=O)C(=O)N[C@@H](Cc1ccc(O)cc1)C(=O)N[C@@H](CCCN=C(N)N)C(=O)N[C@@H](CCCN=C(N)N)C(=O)N[C@H](C(=O)N[C@@H](CCCN=C(N)N)C(=O)O)CSSC[C@H](NC(=O)[C@H](Cc1c[nH]c3ccccc13)NC(=O)[C@@H](N)CCCCN)C(=O)N[C@@H](C)C(=O)N[C@@H](CCCN=C(N)N)C(=O)N[C@@H](C(C)C)C(=O)N2` [KWCARVCYRGICYRRCR]: the minimal inhibitory concentration (MIC) in experiment [3] stood at 0.228 µM (≈ 0.499 µg/mL); in experiment [4], 0.228 µM (≈ 0.499 µg/mL); with Klebsiella pneumoniae, 7.3 µM (≈ 16 µg/mL); against Acinetobacter baumannii it was 0.228 µM (≈ 0.499 µg/mL); in [5], 0.114 µM (≈ 0.25 µg/mL); in [1] it was 0.057 µM (≈ 0.125 µg/mL). Besides, the MIC in experiment [6] is 0.228 µM (≈ 0.499 µg/mL); in experiment [2], 1.82 µM (≈ 3.99 µg/mL); in experiment [7], 3.65 µM (≈ 7.99 µg/mL); in [8], 0.228 µM (≈ 0.499 µg/mL); in experiment [9], 0.228 µM (≈ 0.499 µg/mL); in experiment [10], 0.228 µM (≈ 0.499 µg/mL). In the experiment with Pseudomonas aeruginosa, the minimal inhibitory concentration (MIC) is 0.912 µM (≈ 2 µg/mL).

For the compound `CC[C@H](C)[C@@H]1NC(=O)CNC(=O)[C@H](CCCN=C(N)N)NC(=O)[C@H](Cc2ccc(O)cc2)NC(=O)[C@@H]2CSSC[C@H](NC1=O)C(=O)N[C@@H](Cc1ccc(O)cc1)C(=O)N[C@@H](CCCN=C(N)N)C(=O)N[C@@H](CCCN=C(N)N)C(=O)N[C@H](C(=O)N[C@@H](CCCN=C(N)N)C(=O)O)CSSC[C@H](NC(=O)[C@H](Cc1c[nH]c3ccccc13)NC(=O)[C@@H](N)CCCCN)C(=O)NCC(=O)N[C@@H](CCCN=C(N)N)C(=O)N[C@@H](C(C)C)C(=O)N2` [KWCGRVCYRGICYRRCR], the MIC in experiment [3] is 0.918 µM (≈ 2 µg/mL); in experiment [4], 0.459 µM (≈ 0.998 µg/mL); in the experiment on Klebsiella pneumoniae it was above 7.34 µM; against Acinetobacter baumannii it was 0.918 µM (≈ 2 µg/mL); in experiment [5] it was 0.23 µM (≈ 0.499 µg/mL); in experiment [1] it was 0.115 µM (≈ 0.25 µg/mL). Also, the MIC in experiment [6] was determined as 0.23 µM (≈ 0.499 µg/mL); in experiment [2], 7.34 µM (≈ 16 µg/mL); in [7], 3.67 µM (≈ 7.99 µg/mL); in [8], 0.459 µM (≈ 0.998 µg/mL); in experiment [9] it was 0.918 µM (≈ 2 µg/mL); in [10], 0.918 µM (≈ 2 µg/mL). In addition, the MIC with Pseudomonas aeruginosa was 7.34 µM (≈ 16 µg/mL).

As to `CC[C@H](C)[C@H](NC(=O)[C@H](CC(C)C)NC(=O)[C@@H](NC(=O)[C@@H](N)CC(C)C)[C@@H](C)CC)C(=O)N[C@@H](CCCCN)C(=O)N[C@@H](CCCN=C(N)N)C(=O)N[C@@H](CCCCN)C(=O)O` [LILIKRK], the minimum inhibitory concentration (MIC) (with Staphylococcus xylosus; in experiment [11]) was at least 64 µM in each case.
